Experimental data as given in BindingDB's records for doi:10.1021/jm9707028 (Boehringer Ingelheim Pharmaceuticals, 1998).

Tests used:
Test in all cases: HIV-1 RT Assay
[1] = target: T1, Gag-Pol polyprotein [600-1027,Y787L]/[600-1155,Y787L] (Human immunodeficiency virus 1, UniProt P03366, Y787L)
T1 construct: 600-1027; 600-1155

[2] = target: T2, Gag-Pol polyprotein [600-1027,Y780C]/[600-1155,Y780C] (Human immunodeficiency virus 1, UniProt P03366, Y780C)
T2 construct: 600-1027; 600-1155

[3] = target: T3, Gag-Pol polyprotein [600-1027,R876K]/[600-1155] (Human immunodeficiency virus 1, UniProt P03366, R876K)
T3 construct: 600-1027; 600-1155

Compound | IC50 [1] [nM] | also measured
CCN1c2ncc(CCc3cccc(N=[N+]=[N-])c3)cc2C(=O)N(C)c2ccc(Cl)nc21 [13-[2-(3-azidophenyl)ethyl]-5-chloro-2-ethyl-9-methyl-2,4,9,15-tetraazatricyclo[9.4.0.0^{3,8}]pentadeca-1(15),3(8),4,6,11,13-hexaen-10-one] | > 1000 | 
CCN1c2ncc(CCc3nccs3)cc2C(=O)N(C)c2cccnc21 [2-ethyl-9-methyl-13-[2-(1,3-thiazol-2-yl)ethyl]-2,4,9,15-tetraazatricyclo[9.4.0.0^{3,8}]pentadeca-1(11),3,5,7,12,14-hexaen-10-one] | > 1000 | 
CCN1c2ncc(CCc3ccccn3)cc2C(=O)N(C)c2cccnc21 [2-ethyl-9-methyl-13-[2-(pyridin-2-yl)ethyl]-2,4,9,15-tetraazatricyclo[9.4.0.0^{3,8}]pentadeca-1(11),3,5,7,12,14-hexaen-10-one] | > 1000 | IC50 [2]: > 1000 nM
CCN1c2ncc(/C=C/C(=O)OC)cc2C(=O)N(C)c2cccnc21 [methyl (2E)-3-{2-ethyl-9-methyl-10-oxo-2,4,9,15-tetraazatricyclo[9.4.0.0^{3,8}]pentadeca-1(11),3,5,7,12,14-hexaen-13-yl}prop-2-enoate] |  | IC50 ([3]; pH 7.8, 22 °C): > 1000 nM
CCN1c2ncc(CCc3cncnc3)cc2C(=O)N(C)c2cccnc21 [2-ethyl-9-methyl-13-[2-(pyrimidin-5-yl)ethyl]-2,4,9,15-tetraazatricyclo[9.4.0.0^{3,8}]pentadeca-1(11),3,5,7,12,14-hexaen-10-one] | > 1000 | IC50 [2]: > 1000 nM
CCN1c2ncc(-c3cccc(OC)c3)cc2C(=O)N(C)c2cccnc21 [2-ethyl-13-(3-methoxyphenyl)-9-methyl-2,4,9,15-tetraazatricyclo[9.4.0.0^{3,8}]pentadeca-1(11),3,5,7,12,14-hexaen-10-one] |  | IC50 ([3]; pH 7.8, 22 °C): > 1000 nM; IC50 ([2]; pH 7.8, 22 °C): > 1000 nM
CCN1c2ncc(CCc3cccc(NS(C)(=O)=O)c3)cc2C(=O)N(C)c2ccc(Cl)nc21 [N-[3-(2-{5-chloro-2-ethyl-9-methyl-10-oxo-2,4,9,15-tetraazatricyclo[9.4.0.0^{3,8}]pentadeca-1(15),3(8),4,6,11,13-hexaen-13-yl}ethyl)phenyl]methanesulfonamide] | > 1000 | 
CCN1c2ncc(CCc3cccc(N)c3)cc2C(=O)N(C)c2cccnc21 [13-[2-(3-aminophenyl)ethyl]-2-ethyl-9-methyl-2,4,9,15-tetraazatricyclo[9.4.0.0^{3,8}]pentadeca-1(15),3(8),4,6,11,13-hexaen-10-one] | > 1000 | 
CCN1c2ncc(CCc3ccc(N)cc3)cc2C(=O)N(C)c2ccc(Cl)nc21 [13-[2-(4-aminophenyl)ethyl]-5-chloro-2-ethyl-9-methyl-2,4,9,15-tetraazatricyclo[9.4.0.0^{3,8}]pentadeca-1(15),3(8),4,6,11,13-hexaen-10-one] | > 1000 | 
CCN1c2ncc(CCc3ccncc3)cc2C(=O)N(C)c2ccc(C#N)nc21 [2,8-Disubstituted Dipyridodiazepinone 38] | > 1000 | 
CCN1c2ncc(CCc3ccncc3)cc2C(=O)N(C)c2cccnc21 [2-ethyl-9-methyl-13-[2-(pyridin-4-yl)ethyl]-2,4,9,15-tetraazatricyclo[9.4.0.0^{3,8}]pentadeca-1(11),3,5,7,12,14-hexaen-10-one] | > 1000 | IC50 [3]: 50 nM; IC50 [2]: 130 nM
CCN1c2ncc(CCc3ccc4ccccc4c3)cc2C(=O)N(C)c2ccc(Cl)nc21 [5-chloro-2-ethyl-9-methyl-13-[2-(naphthalen-2-yl)ethyl]-2,4,9,15-tetraazatricyclo[9.4.0.0^{3,8}]pentadeca-1(15),3(8),4,6,11,13-hexaen-10-one] | > 1000 | 
CCN1c2ncc(CCc3cccnc3)cc2C(=O)N(C)c2cccnc21 [2-ethyl-9-methyl-13-[2-(pyridin-3-yl)ethyl]-2,4,9,15-tetraazatricyclo[9.4.0.0^{3,8}]pentadeca-1(11),3,5,7,12,14-hexaen-10-one] | > 1000 | IC50 [3]: 30 nM
CCN1c2ncc(C(=O)O)cc2C(=O)N(C)c2cccnc21 [2-ethyl-9-methyl-10-oxo-2,4,9,15-tetraazatricyclo[9.4.0.0^{3,8}]pentadeca-1(11),3,5,7,12,14-hexaene-13-carboxylic acid] |  | IC50 ([3]; pH 7.8, 22 °C): > 1000 nM
CCN1c2ncc(CCc3ccnc(CO)c3)cc2C(=O)N(C)c2ccc(Cl)nc21 [5-chloro-2-ethyl-13-{2-[2-(hydroxymethyl)pyridin-4-yl]ethyl}-9-methyl-2,4,9,15-tetraazatricyclo[9.4.0.0^{3,8}]pentadeca-1(15),3(8),4,6,11,13-hexaen-10-one] | > 1000 | 
CCN1c2ncc(CCc3ccc(C)cc3)cc2C(=O)N(C)c2cccnc21 [2-ethyl-9-methyl-13-[2-(4-methylphenyl)ethyl]-2,4,9,15-tetraazatricyclo[9.4.0.0^{3,8}]pentadeca-1(11),3,5,7,12,14-hexaen-10-one] | > 1000 | IC50 [3]: 100 nM
CCN1c2ncc(CCc3ccc(N)cc3)cc2C(=O)N(C)c2cccnc21 [13-[2-(4-aminophenyl)ethyl]-2-ethyl-9-methyl-2,4,9,15-tetraazatricyclo[9.4.0.0^{3,8}]pentadeca-1(15),3(8),4,6,11,13-hexaen-10-one] | > 1000 | 

Compound | IC50 [1] [nM] | also measured
CCN1c2ncc(CCc3ccccc3)cc2C(=O)N(C)c2ccc(-c3ccc[nH]3)nc21 [2-ethyl-9-methyl-13-(2-phenylethyl)-5-(1H-pyrrol-2-yl)-2,4,9,15-tetraazatricyclo[9.4.0.0^{3,8}]pentadeca-1(15),3(8),4,6,11,13-hexaen-10-one] | 1280 | IC50 [3]: 590 nM; IC50 [2]: 520 nM
CCN1c2ncc(CCc3ccccc3N)cc2C(=O)N(C)c2cccnc21 [13-[2-(2-aminophenyl)ethyl]-2-ethyl-9-methyl-2,4,9,15-tetraazatricyclo[9.4.0.0^{3,8}]pentadeca-1(15),3(8),4,6,11,13-hexaen-10-one] | > 1000 | 
CCN1c2ncc(CCc3ccnc(C(=O)O)c3)cc2C(=O)N(C)c2ccc(Cl)nc21 [2-Chloro-5,11-dihydro-11-ethyl-5-methyl-8-[2-(2-carboxypyrid-4-yl)ethyl]-6H-dipyrido[3,2-b:2 ,3-e][1,4]diazepin-6-one] | > 1000 | 
CCN1c2ncc(N)cc2C(=O)N(C)c2cccnc21 [13-amino-2-ethyl-9-methyl-2,4,9,15-tetraazatricyclo[9.4.0.0^{3,8}]pentadeca-1(11),3,5,7,12,14-hexaen-10-one] |  | IC50 ([3]; pH 7.8, 22 °C): 100 nM
CCN1c2ncc(/C=C/c3ccncc3)cc2C(=O)N(C)c2cccnc21 [5,11-Dihydro-11-ethyl-5-methyl-8-[trans-2-(4-pyridyl)ethen-1-yl]-6H-dipyrido[3,2-b:2 ,3-e][1,4]diazepin-6-one] |  | IC50 [2]: > 1000 nM
CCN1c2ncc(C)cc2C(=O)N(C)c2cccnc21 [2-ethyl-9,13-dimethyl-2,4,9,15-tetraazatricyclo[9.4.0.0^{3,8}]pentadeca-1(11),3,5,7,12,14-hexaen-10-one] |  | IC50 ([2]; pH 7.8, 22 °C): > 1000 nM
CCN1c2ncc(CCc3ccc(NS(C)(=O)=O)cc3)cc2C(=O)N(C)c2ccc(Cl)nc21 [N-[4-(2-{5-chloro-2-ethyl-9-methyl-10-oxo-2,4,9,15-tetraazatricyclo[9.4.0.0^{3,8}]pentadeca-1(15),3(8),4,6,11,13-hexaen-13-yl}ethyl)phenyl]methanesulfonamide] | > 1000 | 
CCN1c2ncc(CCc3ccccc3C)cc2C(=O)N(C)c2ccc(Cl)nc21 [5-chloro-2-ethyl-9-methyl-13-[2-(2-methylphenyl)ethyl]-2,4,9,15-tetraazatricyclo[9.4.0.0^{3,8}]pentadeca-1(15),3(8),4,6,11,13-hexaen-10-one] | > 1000 | IC50 [3]: > 1000 nM; IC50 [2]: > 1000 nM
CCN1c2ncc(CCc3cccc(C)c3)cc2C(=O)N(C)c2ccc(Cl)nc21 [5-chloro-2-ethyl-9-methyl-13-[2-(3-methylphenyl)ethyl]-2,4,9,15-tetraazatricyclo[9.4.0.0^{3,8}]pentadeca-1(15),3(8),4,6,11,13-hexaen-10-one] | > 1000 | 
CCN1c2ncc(CCc3ccc4ccccc4c3)cc2C(=O)N(C)c2ccc(F)nc21 [2-ethyl-5-fluoro-9-methyl-13-[2-(naphthalen-2-yl)ethyl]-2,4,9,15-tetraazatricyclo[9.4.0.0^{3,8}]pentadeca-1(15),3(8),4,6,11,13-hexaen-10-one] | > 1000 | 
CCN1c2ncc(CCc3ccc(C)cc3)cc2C(=O)N(C)c2ccc(Cl)nc21 [5-chloro-2-ethyl-9-methyl-13-[2-(4-methylphenyl)ethyl]-2,4,9,15-tetraazatricyclo[9.4.0.0^{3,8}]pentadeca-1(15),3(8),4,6,11,13-hexaen-10-one] | > 1000 | 
CCN1c2ncc(CCc3ccnc(C)c3)cc2C(=O)N(C)c2cccnc21 [2-ethyl-9-methyl-13-[2-(2-methylpyridin-4-yl)ethyl]-2,4,9,15-tetraazatricyclo[9.4.0.0^{3,8}]pentadeca-1(15),3(8),4,6,11,13-hexaen-10-one] | > 1000 | 
CCN1c2ncc(CCc3ccc4ccccc4c3)cc2C(=O)N(C)c2cccnc21 [2-ethyl-9-methyl-13-[2-(naphthalen-2-yl)ethyl]-2,4,9,15-tetraazatricyclo[9.4.0.0^{3,8}]pentadeca-1(15),3(8),4,6,11,13-hexaen-10-one] | > 1000 | 
CCN1c2ncc(CCc3ccccc3C)cc2C(=O)N(C)c2cccnc21 [2-ethyl-9-methyl-13-[2-(2-methylphenyl)ethyl]-2,4,9,15-tetraazatricyclo[9.4.0.0^{3,8}]pentadeca-1(11),3,5,7,12,14-hexaen-10-one] | > 1000 | 
CCN1c2ncc(Cl)cc2C(=O)N(C)c2cccnc21 [13-chloro-2-ethyl-9-methyl-2,4,9,15-tetraazatricyclo[9.4.0.0^{3,8}]pentadeca-1(11),3,5,7,12,14-hexaen-10-one] |  | IC50 ([2]; pH 7.8, 22 °C): > 1000 nM
CCN1c2ncc(CCc3cccc(C)c3)cc2C(=O)N(C)c2cccnc21 [2-ethyl-9-methyl-13-[2-(3-methylphenyl)ethyl]-2,4,9,15-tetraazatricyclo[9.4.0.0^{3,8}]pentadeca-1(11),3,5,7,12,14-hexaen-10-one] | > 1000 | 
